Test results: doi:10.1101/669069v1 (biorxiv, 2019)

Target: T1, uMAT (MAT from U. urealiticum) (Ureaplasma urealyticum, UniProt A0ABM9XK24)
T1 sequence (A0ABM9XK24 1-376): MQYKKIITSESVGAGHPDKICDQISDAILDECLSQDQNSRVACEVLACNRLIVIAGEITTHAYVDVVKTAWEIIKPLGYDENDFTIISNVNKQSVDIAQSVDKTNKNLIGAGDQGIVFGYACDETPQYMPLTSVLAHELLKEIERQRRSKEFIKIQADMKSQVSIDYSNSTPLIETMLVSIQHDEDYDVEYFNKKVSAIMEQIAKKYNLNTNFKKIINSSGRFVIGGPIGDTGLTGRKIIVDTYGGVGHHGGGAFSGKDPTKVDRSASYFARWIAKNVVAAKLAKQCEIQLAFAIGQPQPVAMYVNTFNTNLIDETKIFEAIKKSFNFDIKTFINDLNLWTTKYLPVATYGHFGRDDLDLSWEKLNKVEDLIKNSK
Experiment: thermal shift, SYPRO-orange
Assay type: binding
Details: read-out: dTm (first transition) at 1 mM

Structure (SMILES) | ΔTm at 1000 µM [°C]
Nc1ncnc2c1ncn2[C@@H]1O[C@H](COP(=O)(O)OP(=O)(O)NP(=O)(O)O)[C@@H](O)[C@H]1O [AMPPNP] | ~2
C[S+](CC[C@H](N)C(=O)O)C[C@H]1O[C@@H](n2cnc3c(N)ncnc32)[C@H](O)[C@@H]1O (some centres unmarked) [SAM, S-adenosylmethionine] | > 10
